Laboratory results from US12606591B2, “Process for the preparation of drospirenone as a fine powder through a double change of crystalline form” (INDUSTRIALE CHIMICA S.R.L., priority 2021, dated 2026).

Assay: Powder particle size by Helos laser particle size analyzer with Quixel disperser
Format: physicochemical
Description: The powders particle size was measured using a Helos laser particle size analyzer equipped with a Quixel disperser (instrument and disperser manufactured and sold by the company Sympatec GmbH of Clausthal-Zellerfeld, Germany), using ultrapure milli-Q water as the dispersing medium. The sample was first dispersed in milli-Q water by adding a few drops of Tween® 80 (polyethylene glycol sorbitan monooleate, sold by Merck) and placed in a sonicating bath for 5 min, then the suspension was added to the dispersing medium loaded into the instrument until an optical density value OD=4-15% is obtained. The measurement (30 s background +30 s measurement) was performed by operating under continuous sonication with the recirculation pump set at 20%.

## C[C@]12CCC(=O)C=C1[C@@H]1C[C@@H]1[C@H]1[C@@H]3[C@@H]4C[C@@H]4[C@@]4(CCC(=O)O4)[C@@]3(C)CC[C@@H]12 [Drospirenone, 17β-hydroxy-6β, 7β; 15, 16β-dimethylene-3-oxo-17α-pregn-4-ene-21-carboxylic acid γ-lactone]
Crystalline Form I powder of Example 3 (process of the invention), FIG. 9, cumulative curve
  size of all particles: lower than 110 μm
Crystalline Form I powder of Example 4 (comparative), FIG. 10
  size of the largest particles present: over 150 μm
Crystalline Form I powder of Example 4 (comparative, no transformation to Form II), FIG. 10
  peak of the sample particles size distribution: about 70 μm
